Source: BindingDB's records for patent US11858959 (Ardelyx, 2024)

Target: T1, 11-beta-hydroxysteroid dehydrogenase type 2 (Homo sapiens, UniProt P80365)
T1 sequence (P80365 whole entry): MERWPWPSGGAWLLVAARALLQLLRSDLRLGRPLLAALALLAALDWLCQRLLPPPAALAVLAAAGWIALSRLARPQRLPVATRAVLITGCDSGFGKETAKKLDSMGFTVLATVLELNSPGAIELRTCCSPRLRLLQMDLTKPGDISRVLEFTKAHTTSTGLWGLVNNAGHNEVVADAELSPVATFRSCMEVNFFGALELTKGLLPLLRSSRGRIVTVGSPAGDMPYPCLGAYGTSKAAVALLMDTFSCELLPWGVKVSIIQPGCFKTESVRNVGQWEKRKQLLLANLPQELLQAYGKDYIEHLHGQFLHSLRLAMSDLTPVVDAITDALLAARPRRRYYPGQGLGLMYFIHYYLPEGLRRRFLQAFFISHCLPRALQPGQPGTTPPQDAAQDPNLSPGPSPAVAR
Assay: HSD2 Activity
Method: Human descending colon epithelial stem cells were cultured as 3D organoids in accordance with Sato et al Gastroenterology. 2011 November; 141(5): 1762-72. Organoids were dissociated using TrypLE Express (life technologies) and plated on 96-well transwells (corning) in supplemented basal media (SBM-advanced DMEM/F12 containing 10 mM HEPES, 1:100 Glutamax, 1:100 penicillin/streptomycin, 1:100N2, 1:50 B27, 1 mM N-acetylcysteine, 10 nM [Leu15]-gastrin I) containing 100 ng/mL Wnt3A (W), 50 ng/mL EGF (E), 100 ng/mL Noggin (N), 500 ng/mL RSpondinl (R), 500 nM A83-01 (S) and 2.5 uM thiazovivin (T). Cultures were differentiated using SBM containing ENRA and 30 nM aldosterone on day 3, and cultures were used for assay on day 6 or 7. Compounds were diluted in DMSO and serial dilutions prepared by titrating in DMSO. Compounds were then diluted into DMEM/F12. Transwell plates containing descending colon cultures were washed twice with DMEM/F12 and compound was added to the apical compartment. Cells were incubated with test compound for 30 minutes at 37 C., 5% CO2 to equilibrate across the cell membrane. […] Cortisol levels were measured using a cortisol HTRF assay kit as described by the manufacturer (Cisbio). Concentration-response curves were then plotted and IC50 (and pIC50) values were determined using least squares non-linear regression.

## Cc1oc(=O)oc1COC(=O)[C@]1(C)[C@@H](OC(=O)CN(C)C)CC[C@@]2(C)[C@H]1CC[C@]1(C)[C@@H]2C(=O)C=C2[C@@H]3C[C@@](C)(C(=O)O)CC[C@]3(C)CC[C@]21C [US11858959, Compound 290-2]
  IC50: 251 nM
